Assay results reported in patent US10844102B2, “Peptides, compositions, and methods for stimulating subcutaneous adipogenesis” (The Regents of the University of California, priority 2014, dated 2020).
“Also recorded” adds a separate entry of the source.

Tests used:
adipogenesis = test: Adipogenic activity of peptides and peptide fragments, assay not specified; type: cell-based; conditions: assay not specified
Protocol: In the second approach, a series of truncations and alanine mutagenesis on peptide B were performed in order to identify the smallest active sequence. Fragments of peptide B were prepared and assayed for adipogenesis. First, fragments corresponding to the two halves of peptide B were prepared (KLKDENS (SEQ ID NO: 8) and SQLKSEVSK (SEQ ID NO: 13)).

[1] = test system: rat mesenchymal stem cells; test: Assay 1: adipogenesis, Oil Red O staining (transdifferentiation of fibroblast lineages into adipocytes); type: cell-based; conditions: for adipogenesis quantified by Oil Red O staining, fold change relative to the negative control: Assay 1, three weeks
Protocol: Reagents: (1) 3-isobutyl-1-methylxanthine (IBMX) solution: 0.5M in DMSO; (2) Insulin Solution: 10 mg/mL recombinant human insulin; (3) Dexamethasone Solution in 10 mM in ethanol; (4) Oil Red O (0.36% in 60% isopropanol).
Adipogenesis Initiation Media: mesenchymal stem cell expansion media/0.5 mM IBMX/1 μM dexamethasone. Mesenchymal stem cell expansion media is commercially available from Millipore. The IBMX Solution was diluted 1:1000 and the Dexamethasone Solution was diluted 1:10,000 in expansion media containing antibiotics and antimycotics. The prepared media was stored at 4° C.
Adipogenesis Progression Media for positive control: mesenchymal stem cell expansion media/10 μg/mL insulin. The Insulin Solution was diluted 1:1000 in the expansion media and stored at 4° C.
Experimental Adipogenesis Progression Media: mesenchymal stem cell expansion media/1-100 μg/mL RHAMM antagonist peptides.
Adipogenesis Maintenance Media: mesenchymal stem cell expansion media containing antibiotics and antimycotics.
Negative Control Media: Dulbecco's Modified Eagle's Medium (DMEM)/10% normal calf serum.
Pre-adipocyte stem cells including bone marrow mesenchymal stem cells and fibroblasts were propagated using standard tissue culture methods. Cells were trypsinized to remove the cells from the substratum. The trypsin was neutralized and cells were counted using a hemocytometer. Cells were resuspended at 20,000 cells/mL in expansion media. 1 mL of cell suspension was plated per well of 48-well plate, with several wells left empty for blank well (blank control) staining.
Cells were incubated until they reached confluency. When cells were fully confluent, the expansion media was replaced with 0.5 mL of Adipogenesis Initiation Media. For negative controls (no insulin, no peptides), expansion media only was used at this step and for subsequent media changes. For all media changes, media was replaced as gently as possible to avoid disturbing the monolayer.
Cells were incubated in Adipogenesis Initiation Media for 72 hours at 37° C., 5% CO2. 0.5 mL media was then removed from each well, and replaced with 0.5 mL of either positive control or experimental Adipogenesis Progression Media per well. Cells were again incubated for 96 hours at 37° C., 5% CO2, after which time media was replaced every 48 hours with Adipogenesis Maintenance Media (0.5 mL of media was removed from each well and replaced with 0.5 mL Adipogenesis Maintenance Media per well). Media added to empty wells served as blank controls for blank well background staining. Cells were incubated in Adipogenesis Maintenance Medium for at least 96 hours at 37° C., 5% CO2 after which time media was replaced with Adipogenesis Maintenance Medium. Lipid droplets had appeared by the time Adipogenesis Maintenance Medium was initially added and continued to accumulate and increase in size for 7-14 days. Experiments were terminated between seven and fourteen days after the initial addition of Adipogenesis Maintenance Medium.
For quantification of Oil Red O staining, media was removed and cells were washed twice with PBS, using care to gently add the PBS. Cells were then fixed in 4% paraformaldehyde (0.5 mL/well) and incubated for 30 minutes. The fixation solution was then removed and wells were washed two times with 1 mL of phosphate buffered saline (PBS) and once with 1 mL Milli-Q water. 0.25 mL Oil Red O solution was added per well of 48-well plate, including to the wells lacking cells, but containing media. Cells were incubated for 15 minutes at room temperature. The staining solution was then removed and wells were washed two times with 1 mL of Milli-Q water and once with washing solution (63% isopropanol in water).
Adipogenesis was quantified using a spectrophotometer. 0.25 mL Dye Extraction Solution (isopropyl alcohol) was added per well, and the plate was set on an orbital shaker or platform rocker for 30 minutes. […]

[2] = test system: rat mesenchymal stem cells; test: Assay 2: adipogenesis, Oil Red O staining (differentiation of pre-adipocytes into adipocytes); type: cell-based; conditions: for adipogenesis quantified by Oil Red O staining, fold change relative to the negative control: Assay 2, three weeks; for adipogenic activity in Assay 2: Assay 2, Oil Red O, concentration not given
Protocol: Reagents: The Dexamethasone, IBMX, Insulin, and Oil Red O Solutions were the same as described above for assay 1. Indomethacin Solution contained 10 mM indomethacin in methanol.
Adipogenesis Maintenance Media was prepared as described above.
Adipogenesis Induction Media: To prepare 501.5 mL of Adipogenesis Induction Media, 50 μL of the 10 mM stock Dexamethasone Solution, 500 μL of the 0.5 M IBMX stock solution, 500 μL of the 10 mg/ml stock Insulin Solution, 5 ml of a 10 mM stock Indomethacin Solution, and 5 mL of a 100× stock solution of penicillin and streptomycin were added to 490 mL of mesenchymal stem cell expansion media.
Pre-adipocyte stem cells, bone marrow mesenchymal stem cells or fibroblasts such as dermal reticular and papillary fibroblasts were propagated using standard tissue culture methods. Cells were trypsinized to remove cells from the substratum, the trypsin was neutralized, and cells were counted using a hemocytometer. Cells were resuspended at 20,000 cells/ml in DMEM containing 10% calf serum. 1 mL of cell suspension per well was plated in a 48-well plate, with several wells left empty for blank well (blank control) staining.
Cells were incubated for 2 days overnight and had reached confluency at this point. Media was removed from each well and replaced with 0.5 ml Adipogenesis Induction Media. For negative control (no insulin, no peptide) wells, expansion medium only was used at this step and for subsequent media changes. For all media changes, media was replaced as gently as possible to avoid disturbing the monolayer.
Cells were incubated for 72 hours at 37° C., 5% CO2. Media was removed and replaced with 0.5 ml of Adipogenesis Maintenance Media containing either RHAMM antagonist peptides (experimental group) or insulin (concentration as in the Adipogenesis Induction Media and used as a positive control). Cells were incubated for at least 96 hours in this media at 37° C., 5% CO2. Media was replaced every 48 hours and experiments were terminated between seven and fourteen days after addition of insulin or peptides.
Media was removed and Oil Red O staining was performed as described above for assay 1.
Assay 1 is an assay that promotes transdifferentiation of fibroblasts into adipocytes, whereas Assay 2 promotes differentiation of multi-potential mesenchymal progenitor cells into adipocytes. Immortalized rat bone marrow mesenchymal stem cells were used for both assays. These cells contain cells of different lineages, including fibroblasts, pre-adipocytes, pre-chondrocytes and pre-osteoblasts. Thus, Assay 1 was used to promote transdifferentiation of fibroblast lineages into adipocytes and Assay 2 was used to promote differentiation of the pre-adipocytes into adipocytes.
As described in Example 1 above, the priming stimulus for Assay 1 includes IBMX (3-isobutyl-1-methylxanthine) and dexamethasone, and then insulin as the final adipogenic stimulus. The priming stimulus for assay 2 includes IBMX, dexamethasone and indomethacin, and then insulin as the final adipogenic stimulus.
Adipogenesis was quantified by Oil Red O staining. The peptide was tested at concentrations of 5 and 50 μg/ml over a period of three weeks. Cells were plated in 48-well culture plates, and the purity of the peptides was >95%. All data are presented as the fold change relative to the negative control (Ctr(−))±standard error. The KSEVSK 6-mer (SEQ ID NO: 7) was used as a positive control.

3T3L cells = test: Adiponectin ELISA on supernatant medium of primed 3T3L cells; type: cell-based, mouse; conditions: 10 μg/ml peptide, versus no insulin control
Protocol: 3T3L cells were cultured in T75 culture flasks, in expansion medium (Millipore Corporation), and stored in a 5% CO2 humidified incubator at 37° C. Media was changed every two days until the cells reached 80% confluency. Cells were subcultured in a 96 well plate with a seeding density of 3×10^4 cells per cm^2.
Once cells had just reached confluency, expansion media was replaced with 0.5 mL of Adipogenic Induction Media per well containing 5% serum that had been screened for an ability to maintain stem cells in an undifferentiated state (LifeTechnologies). Cells were incubated for 48 hours at 37° C., 5% CO2. The Adipogenic Induction Media contained DMEM (low glucose, Gibco) +5% serum (LifeSciences) with 0.5 mM IBMX solution, 1 μM Dexamethasone Solution, and 100 μM Indomethacin Solution (priming stimulus). After 48 hr the Adipogenic Induction media was replaced with new media containing 10 μg/ml insulin alone (positive control), or 10 μg/ml peptide (experimental conditions). Negative controls were DMEM +5% serum only. Plates were incubated for two days prior to adiponectin ELISA analyses. Peptides were added daily at 10 μg/ml throughout the remainder of the experiment.
Adiponectin present in the supernatant medium was measured using a mouse adiponectin ELISA (Novex, LifeTechnologies). Briefly, supernatant medium was collected and diluted 1:100. One hundred microliters of the diluted supernatant medium was added to each well of the ELISA plate and incubated for one hour at 37° C. Wells were washed three times with 1× wash buffer and then 100 μl of antibody was added to each well and incubated for one hour at 37° C. The wells were then washed and incubated with 100 μl detector antibody for 1 hr at 37° C. The wells were washed five times with wash buffer and 100 μl of substrate solution was added to each well and incubated for twenty minutes in the dark. The reaction was then stopped by the addition of 100 μl stop solution. Plates were read at 450 nm and concentrations of adiponectin were derived from a standard curve included in the ELISA plate.
Insulin and the KSEVSK peptide (SEQ ID NO: 7) served as positive controls. […] In FIG. 7, values marked by asterisks represent significant changes relative to the no insulin control (i.e., the negative control) using a two-tailed Student's T test, p<0.05.

[3] = earlier reports, background and U.S. Pat. No. 6,271,344; cited from earlier work
mesenchymal stem cell = conditions: commercially available mesenchymal stem cell kit; as described in WO 2014/082042; cited from earlier work

**Q.** With KLKDENS (listed as Homo sapiens) as the molecule, how does the adipogenic activity (adipogenesis) read?
**A.** did not exhibit adipogenic activity; also recorded: lack adipogenic activity

**Q.** For KLKDENSQ (listed as Homo sapiens), which “adipogenesis quantified by Oil Red O staining, fold change relative to the negative control” value ([1]; peptide 5 μg/ml) is on record?
**A.** significant adipogenic effect

**Q.** What about the “adipogenesis quantified by Oil Red O staining, fold change relative to the negative control” value ([1]; peptide 50 μg/ml) of the same molecule?
**A.** significant adipogenic effect

**Q.** What about the “adipogenesis quantified by Oil Red O staining, fold change relative to the negative control” value ([2]; peptide 5 μg/ml) of the same molecule?
**A.** significant adipogenic effect

**Q.** And the “adipogenesis quantified by Oil Red O staining, fold change relative to the negative control” value ([2]; peptide 50 μg/ml)?
**A.** significant adipogenic effect

**Q.** What about the adipogenic activity (adipogenesis) of the same molecule?
**A.** are adipogenic

**Q.** With KLQEELNKV (Ovis aries) as the molecule, how does the “adipogenesis quantified by Oil Red O staining, fold change relative to the negative control” value ([1]; peptide 5 μg/ml) read?
**A.** significantly increased adipogenesis

**Q.** What about the “adipogenesis quantified by Oil Red O staining, fold change relative to the negative control” value ([1]; peptide 50 μg/ml) of the same molecule?
**A.** significantly increased adipogenesis

**Q.** And the “adipogenesis quantified by Oil Red O staining, fold change relative to the negative control” value ([2]; peptide 5 μg/ml)?
**A.** only observed when a concentration of 50 μg/ml was used

**Q.** What about the “adipogenesis quantified by Oil Red O staining, fold change relative to the negative control” value ([2]; peptide 50 μg/ml) of the same molecule?
**A.** significantly increased adipogenesis

**Q.** What does the source list for “KTRSHHI (listed as Monodelphis domestica)”?
**A.** adipogenic activity in Assay 1 ([1]; Assay 1, Oil Red O, concentration not given): ablated adipogenic activity; adipogenic activity in Assay 2 [2]: ablated adipogenic activity

**Q.** For KTRSHHV, which “adipogenesis quantified by Oil Red O staining, fold change relative to the negative control” value ([1]; peptide 5 μg/ml) is on record?
**A.** significant increase in adipogenesis

**Q.** What about the “adipogenic activity in Assay 2” value [2] of the same molecule?
**A.** not in assay 2

**Q.** And the adipogenic activity (adipogenesis)?
**A.** has adipogenic activity; also recorded: is adipogenic

**Q.** Which “adipogenic activity in the adiponectin assay (adiponectin secretion)” value (3T3L cells) does the source give for “KTSSHHV (listed as Arabidopsis thaliana)” here?
**A.** lack an ability to promote adipogenesis

**Q.** For LKSEVSK (listed as Homo sapiens), which adipogenic activity (adipogenesis) is on record?
**A.** also found to be adipogenic

**Q.** Which adipogenic activity (adipogenesis) does the source give for SQLKSEVSK (listed as Homo sapiens) here?
**A.** found to be adipogenic

**Q.** Which adipogenic activity (adipogenesis) does the source give for STMMSRSHK here?
**A.** found to have adipogenic activity

**Q.** With STMMSRSHKTRSCHH as the molecule, how does the “binding to hyaluronan (HA)” value [3] read?
**A.** binds to HA

B1: 114 amino acid protein fragment: RHAMM carboxy-terminal sequence from mouse RHAMM produced as a recombinant protein (protein, listed as Mus musculus)
chain: LDAFEAEKQALLNEHGATQEQLNKIRDSYAQLLGHQNLKQKIKHVVKLKDENSQLKSEVSKLRSQLVKRKQNELRLQGELDKALGIRHFDPSKAFCHASKENFTPLKEGNPNCC
**Q.** Which adipogenesis (mesenchymal stem cell) does the source give for B1 here?
**A.** promoted adipogenesis
